In patent publication US20260325485A1, “COMPOSITIONS AND METHODS FOR TREATING PANCREATITIS” (The United States Government as represented by the …, priority 2022, published 2026):

Tests used:
[1] = tested on: mouse pancreatic acinar cells; experiment: Ex-vivo CCK-AP in mouse pancreatic acinar cells treated with simvastatin or MCD; assay type: cell-based; details: simvastatin 4 μM, 3 h or MCD 10 mM, 1 h
Experimental: FIGS. 26A-26D preventing cholesterol overload ameliorates ex-vivo pancreatitis. Mouse pancreatic acinar cells were incubated (A, B) with simvastatin (4 μM, 3 h) or (C, D) cholesterol chelator, methyl-β-cyclodextrin (MCD; 10 mM, 1 h) and then subjected to CCK-AP for 1 (D) or 3 h (A, B). Cholesterol content (A, C) necrosis (B), and trypsin activity (D) were measured. Each symbol represents an individual cell preparation. Values are mean±SEM*p<0/05, **p<0.01 vs control; #p<0.05 ##p<0.01; vs CCK, no inhibitor.
Ex vivo pancreatitis models were performed on mouse and human acinar cells, and human pancreas slices by incubation with supramaximal CCK (100 nM) or carbachol (1 mM), as described previously (80, 81).
Activities of cathepsin (Cat) B and L, caspase-3, trypsin, and lysosomal acid lipase (LAL) were measured in pancreatic tissue or cell homogenates and subcellular fractions with fluorogenic assays using substrates specific for CatB (Z-Arg-Arg-AMC), CatL (Z-Phe-Arg-AMC), caspase-3-like ([…]), trypsin (Boc-Gln-Ala-Arg-AMC), as previously described (1-4, 6, 7); and for LAL (4-methylumbelliferyl oleate), as in (17). In measurements of CatL activity, the assay buffer also contained 50 μM CA-074me, a CatB inhibitor. LAL activity was measured in the absence and presence of the LAL inhibitor lalistat (100 μM) as the difference between these values (17).
Total cholesterol content was measured with Cholesterol Assay kit per manufacturer's instructions. Samples of mouse pancreas and liver, cell pellet homogenates, subcellular fractions, isolated mitochondria, and serum were diluted in the reaction buffer containing cholesterol probe and incubated at 37° C. for 1 h in the dark. To measure total cholesterol, the samples were subjected to digestion with cholesterol esterase. To measure non-esterified cholesterol, the esterase was omitted from the assay.

[2] = tested on: cerulein pancreatitis (CER-AP); experiment: Drug treatment of cerulein pancreatitis (CER-AP) in WT mice; assay type: in vivo, mouse
Experimental: FIGS. 10A-10N show deranged cholesterol metabolism causes acinar cell damage, while its normalization ameliorates experimental pancreatitis. (A-D) Cholesterol content and trypsin activity were measured (per mg protein) in WT mouse acinar cells incubated for 1 hour without and with methyl-β-cyclodextrin (MCD; 10 mM) or cholesterol-loaded MCD (MCD-Chol; 200 μg/mL), in the presence or absence of 100 nM CCK. Values are expressed relative to those in cells without MCD/MCD-Chol. (E-J) WT mice received daily i.p. injections of the LXR agonist T0901317 (T09), simvastatin (Sim; 20 mg/kg each), or vehicle. On day 4, mice were subjected to CER-AP and pancreata collected for analyses (see also FIG. 20). Cholesterol content (E), trypsin activity (F), and pancreas histopathology (H&E staining; G) were measured. (H, I, L, and N) IB analysis of markers/mediators of autophagy (LC3, p62), ER stress (CHOP, GRP-78), and mitophagy (Parkin). Ub, ubiquitylated proteins. (J) Mitochondrial fragmentation was assessed by immunostaining for Tom20, as detailed in FIG. 7G. (K and L) Mouse acinar cells were treated for 16 hours with LDL (30 μg/mL) or the combination of LDL and 10 μM U18666A. (M and N) Mice received injections of U18666A as detailed in FIG. 9B. Pancreas histopathology (H&E staining; M) and levels of autophagy markers/mediators (N) were measured. Each symbol in A-F and I represents an individual mouse or cell preparation. Values are mean±SEM from 3 to 7 mice or cell preparations per condition. ^§ P<0.05, ^§§ P<0.01 vs. control cells (without MCD/MCD-Chol). ***P<0.001 vs. saline-treated mice. ^#P<0.05, ^##P<0.01, ^###P<0.001 vs. CER-AP alone (no inhibitors). Significance was determined by 2-tailed Student's t test (A-D) or 1-way ANOVA followed by Tukey's multiple comparison test (E, F, and I). Scale bars: 10 μm.
FIGS. 20A-20C show simvastatin improves cerulein pancreatitis. Mice received daily i.p. injections of simvastatin (Sim; 20 mg/kg) or vehicle (see FIG. 10), and on day 4 were subjected to cerulein pancreatitis (CER-AP). (A) Pancreas histopathology (H&E staining; scale: 10 μm). (B) IB analysis of markers/mediators of autophagy (LC3, p62), ER stress (CHOP), and the MLN64/STARD3 protein mediating cholesterol transfer from LE/Ly to mitochondria. Each IB lane represents an individual mouse; ERK1/2 is the loading control. […] Ub, ubiquitylated proteins. (C) Pancreatitis responses. Values are mean±SEM from 7-13 mice for each condition. ***p<0.001 vs saline control. ^###p<0.001 vs CER-AP alone (no simvastatin). Significance was determined by 1-way ANOVA followed by Tukey's multiple comparisons test.
FIGS. 25A-25C show reducing cholesterol overload greatly ameliorates experimental pancreatitis. CER-AP responses were measured in (A) AclyAac or (C) WT mice treated with simvastatin or bempedoic acid (BemA). (B) Acinar cells were transfected with ACLA (or mock) siRNA and subjected to ex-vivo CCK-AP. Each symbol represents an individual mouse or cell preparation. Values are mean±SE. **p<0.01, ***p<0.001 vs saline treated control mice (or mock transfection); #p<0.05, ##p<0.01, ###p<0.001 vs CER/CCK-AP in control mice (i.e. without inhibitors) or cells.
Cerulein-induced (CER-AP) and L-arginine induced (Arg-AP) acute pancreatitis models were performed in 12-week-old C57BL/6 mice that received 7 hourly i.p. injections of 50 μg/kg cerulein or 3 hourly i.p. injections of 3.3 g/kg Arg; controls received physiologic saline injections. Mice were euthanized for analyses 7 hours after the first cerulein or 24 hours after the first Arg injection. Choline deficient, ethionine-supplemented (CDE) pancreatitis was induced in young (~5-weeks old) female mice fed either CDE or control diet. Mice were euthanized 72 hours after the diet initiation. These models have been described in detail (1-7).
12-week-old WT mice were subjected for 4 consecutive days to daily i.p. injections of 20 mg/kg simvastatin (8,9) or 20 mg/kg T0901317 (10); or 10 mg/kg U18666A for 15 days (11). […]

[3] = CER-AP, T0901317 or simvastatin 20 mg/kg i.p. daily
[4] = WT mice treated with simvastatin or BemA

SMILES: CCC(C)(C)C(=O)O[C@H]1C[C@@H](C)C=C2C=C[C@H](C)[C@H](CC[C@@H]3C[C@@H](O)CC(=O)O3)[C@H]21 [simvastatin]
- cholesterol overload in ex-vivo CCK-AP [1]: Reducing
- extent of necrosis in ex-vivo CCK-AP [1]: greatly decreased
- trypsinogen activation in ex-vivo CCK-AP [1]: greatly decreased
- CER-induced increase in MLN64 ([2]; CER-AP, 20 mg/kg i.p. daily): abrogated
- accumulation of LC3-II ([2]; CER-AP, 20 mg/kg i.p. daily): reduced
- accumulation of p62 ([2]; CER-AP, 20 mg/kg i.p. daily): reduced
- accumulation of ubiquitylated proteins ([2]; CER-AP, 20 mg/kg i.p. daily): reduced
- mitochondrial fragmentation (Tom20 IF) ([2]; CER-AP, 20 mg/kg i.p. daily): normalized
- CHOP levels ([2]; CER-AP, 20 mg/kg i.p. daily, ER stress): decreased
- pancreatitis-induced increase in total cholesterol [2, 3]: eliminated
- pancreatitis-induced increase in trypsin activity [2, 3]: eliminated
- other pancreatitis responses ([2]; CER-AP, simvastatin 20 mg/kg i.p. daily, FIG. 20C): ameliorated
- pancreas histopathology in CER-AP ([2]; H&E, 20 mg/kg i.p. daily): improved
- cholesterol overload in CER-AP (FIG. 25C) [2, 4]: decreased
- inflammation in CER-AP (FIG. 25C) [2, 4]: ameliorated
- necrosis in CER-AP (FIG. 25C) [2, 4]: ameliorated
- trypsin activity in CER-AP (FIG. 25C) [2, 4]: ameliorated
- pathologic responses of experimental pancreatitis (impaired autophagy, ER stress and others) ([2]; discussion statement): reduced
- experimental pancreatitis in WT mouse and ex vivo models ([2]; overall result): ameliorated
